TGI data for twelve compounds are collected here from PubChem BioAssay (NCI).

Test systems include MDA-MB-231 breast; MDA-MB-435; SNB-19 CNS; M14 melanoma; SW-620 colon; CAKI-1 renal; SF-539 CNS; NCI-H460 lung; DU-145 prostate; A498 renal; LOX IMVI melanoma; HCC-2998 colon.
Holding throughout (assay): NCI-60 cell line screen, 48 h

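The compound was tested at five concentrations on cells cultured in 96-well plates, with a 48-hour exposure period. TGI is the concentration that stops growth completely.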

Take `Cc1nc2c(c(N3CCN(C)CC3)n1)Cc1ccccc1-2`: the TGI in the assay on MDA-MB-231 breast is over 100 µM; in the assay on MDA-MB-435 it was over 100 µM; in the assay on SNB-19 CNS it was 74.6 µM; with M14 melanoma it was over 100 µM; in the assay with SW-620 colon it was over 100 µM; in the assay on CAKI-1 renal it was 49.4 µM. In addition, the TGI with SF-539 CNS was over 100 µM; in the assay with NCI-H460 lung it was 47.4 µM; in the assay on DU-145 prostate, over 100 µM.

For `COc1ccc(N2C(=O)C3CC(c4ccc(Br)cc4)c4c([nH]c5ccccc45)C3C2=O)cc1` (configuration not stated), the TGI in the assay with A498 renal was 22.3 µM; with SNB-19 CNS, 10.5 µM; in the assay on M14 melanoma it was over 100 µM; in the assay with SW-620 colon it was 18.5 µM; with LOX IMVI melanoma, 16.3 µM; in the assay on CAKI-1 renal it was 29.6 µM. Also, the TGI in the assay on SF-539 CNS turned out to be 11.7 µM; in the assay on NCI-H460 lung, 17.2 µM.

In the case of `COC(=O)C(Cc1c[nH]c2ccccc12)NC(=O)C(Cc1cnc[nH]1)NC(=O)C1CCC(=O)N1C(=O)OCc1ccccc1` (configuration not stated), the TGI in the assay on A498 renal was 68.3 µM; in the assay on HCC-2998 colon it was over 100 µM; in the assay on SNB-19 CNS, over 100 µM; in the assay on M14 melanoma, over 100 µM; in the assay with SW-620 colon it was over 100 µM; in the assay with NCI-H460 lung it was over 100 µM.

`CCOP(=O)(CC(=O)C1CC1)OCC`: the TGI with MDA-MB-231 breast, in the assay with HCC-2998 colon, with SNB-19 CNS, with M14 melanoma, in the assay with SW-620 colon and in the assay with LOX IMVI melanoma was over 100 µM throughout. The TGI with CAKI-1 renal, with SF-539 CNS, with NCI-H460 lung and in the assay on DU-145 prostate was over 100 µM in each case.

`CN1CCC2(CC1)SSC1(CCN(C)CC1)S2`: the TGI with MDA-MB-231 breast, in the assay with MDA-MB-435, in the assay on SNB-19 CNS, in the assay with M14 melanoma, in the assay with SW-620 colon and with LOX IMVI melanoma was over 100 µM each time. Moreover, the TGI in the assay on SF-539 CNS and in the assay on NCI-H460 lung was over 100 µM each time.

Consider `O=C1c2ccccc2N(O)C1(c1ccccc1)C1CCCC=C1N1CCOCC1` (configuration not stated), for which the TGI in the assay on HCC-2998 colon, in the assay on SNB-19 CNS, in the assay with M14 melanoma, in the assay on SW-620 colon, in the assay on LOX IMVI melanoma and in the assay on CAKI-1 renal was over 100 µM each time. Also, the TGI with SF-539 CNS and in the assay with NCI-H460 lung was over 100 µM throughout.

In the case of `CC(C)(C)C1=C(Br)C(F)(C(C)(C)C)OP1(=O)c1ccccc1` (configuration not stated), the TGI in the assay on A498 renal stood at 40 µM; with MDA-MB-435, 29.9 µM; in the assay with HCC-2998 colon, 28.4 µM; in the assay on SNB-19 CNS, 30.6 µM; in the assay with M14 melanoma, 28.5 µM; in the assay on SW-620 colon it was 32.3 µM. In addition, the TGI with LOX IMVI melanoma came to 36.4 µM; in the assay with CAKI-1 renal, 25.8 µM; with SF-539 CNS it was 33.2 µM; with NCI-H460 lung, 35.6 µM; in the assay with DU-145 prostate, 32 µM.

As to `O=S1(=O)c2ccccc2N(O)C2=NCCN21`, the TGI with A498 renal, with HCC-2998 colon, with SNB-19 CNS, in the assay with M14 melanoma, in the assay with SW-620 colon and in the assay with LOX IMVI melanoma was over 100 µM each time. Further, the TGI in the assay with CAKI-1 renal, in the assay on SF-539 CNS and in the assay on NCI-H460 lung was over 100 µM in each case.

For the compound `CCOC(=O)c1c(N)sc2c1CC(C)CC2` (configuration not stated), the TGI was over 100 µM with MDA-MB-231 breast; over 100 µM in the assay with MDA-MB-435; 45.6 µM in the assay on HCC-2998 colon; over 100 µM in the assay on SNB-19 CNS; over 100 µM with M14 melanoma; over 100 µM with SW-620 colon. The TGI in the assay with LOX IMVI melanoma, in the assay with CAKI-1 renal, in the assay with NCI-H460 lung and in the assay with DU-145 prostate was over 100 µM throughout.

Take `COc1ccc2[nH]cc(CCNC(=O)[C@H](Cc3ccc(O)cc3)NC(=O)[C@@H](NCC(F)(F)F)C(C)C)c2c1`: the TGI is over 100 µM with MDA-MB-231 breast; 83.3 µM with MDA-MB-435; over 100 µM in the assay with SNB-19 CNS; over 100 µM in the assay with M14 melanoma; over 100 µM with SW-620 colon; over 100 µM in the assay on LOX IMVI melanoma. Also, the TGI in the assay with SF-539 CNS, in the assay with NCI-H460 lung and in the assay with DU-145 prostate was over 100 µM throughout.

Take `Cc1ccc2c(c1)nc1n2C(c2c(F)cccc2F)SC1` (configuration not stated): the TGI in the assay on MDA-MB-231 breast, with MDA-MB-435, with HCC-2998 colon, with SNB-19 CNS, in the assay with M14 melanoma and in the assay on SW-620 colon was over 100 µM throughout. Also, the TGI in the assay on LOX IMVI melanoma is over 100 µM; in the assay with CAKI-1 renal it was over 100 µM; in the assay on SF-539 CNS, 59.2 µM; in the assay on NCI-H460 lung, over 100 µM.

On to `O=C1C(Cl)=C(Cl)C(=O)C(CCNc2nccs2)=C1Cl`, for which the TGI is 42 µM in the assay with MDA-MB-435; over 100 µM in the assay on HCC-2998 colon; over 100 µM in the assay with SNB-19 CNS; 42 µM in the assay on M14 melanoma; over 100 µM in the assay on SW-620 colon; 37.1 µM in the assay with CAKI-1 renal. For the same compound, the TGI with SF-539 CNS, in the assay on NCI-H460 lung and with DU-145 prostate was over 100 µM in each case.
